Results as given in patent US9012431B2, “Boron-containing small molecules as anti-inflammatory agents” (Anacor Pharmaceuticals, Inc., priority 2008, dated 2015).
Structures can show the parent of a compound that is named as a salt.

How the values were obtained:
TNF-α = test: Cytokine assay, TNF-α release from PBMC; type: cell-based; settings: 1 μg/mL LPS, supernatant at 24 hours
Method: (§1) The ability of the compounds described herein to inhibit pro-inflammatory cytokines or phsophodiesterases were tested.
(§2) Frozen human peripheral blood mononucleocytes (PBMC) were thawed and centrifuged. Cryopreservation media was aspirated off of the cell pellet, and the cells were resuspended in fresh culture media (CM) comprising RPMI 1640 and 10% FBS in 96 well plates. Test article was dissolved in DMSO to form a 10 mM sample (DMSO, 100%). The 10 mM samples were diluted to 100 μM in CM (DMSO, 1%), then further diluted to 10, 1, 0.1, 0.01 μM in 200 μL of CM (n=3). […] IL-23 was assayed using a commercial ELISA kit (R&D Systems).

IFN-γ = test: Cytokine assay, IFN-γ release from PBMC; type: cell-based; settings: human PBMC, 20 ug/mL PHA, supernatant at 24 hours
Method: as §1, §2

[1] = system: T1, PDE4 partially purified from human U-937 myeloid leukemia cells; test: PDE4 Assay (enzyme from U-937 cells, [3H]cAMP); type: biochemical; settings: PDE4 from U-937 cells, Tris buffer pH 7.5, 20 minutes at 25° C.
T1 construct: PDE4 partially purified from human U-937 myeloid leukemia cells was used
Method: Test article and/or vehicle was incubated with 0.2 mg enzyme and 1 mM cAMP containing 0.01 mM [3H]cAMP in Tris buffer pH 7.5 for 20 minutes at 25° C. The reaction was terminated by boiling for 2 minutes and the resulting AMP is converted to adenosine by addition of 10 mg/ml snake venom nucleotidase and further incubation at 37° C. for 10 minutes. Unhydrolyzed cAMP is bound to AG1-X2 resin, and remaining [3H]Adenosine in the aqueous phase is quantitated by scintillation counting.

IL-10 = test: Cytokine assay, IL-10 release from PBMC; type: cell-based; settings: human PBMC, 20 ug/mL PHA, supernatant at 48 hours
Method: as §1, §2

IL-2 = test: Cytokine assay, IL-2 release from PBMC; type: cell-based; settings: human PBMC, 20 ug/mL PHA, supernatant at 24 hours
Method: as §1, §2

IL-5 = test: Cytokine assay, IL-5 release from PBMC; type: cell-based; settings: human PBMC, 20 ug/mL PHA, supernatant at 48 hours
Method: as §1, §2

| Structure (SMILES) | IC50 (TNF-α; human PBMC, hydrochloride) | IC50 (IFN-γ) | IC50 [1] | IC50 (IL-10) | IC50 (IL-2) | IC50 (IL-5) | IC50 (TNF-α; Homo sapiens, PBMC, 24 h) |
| --- | --- | --- | --- | --- | --- | --- | --- |
| N#Cc1ccc(Oc2ccc3c(c2)COB3O)c(CN)c1 [D26, 5-(2-Aminomethyl-4-cyanophenoxy)-1,3-dihydro-1-hydroxy-2,1-benzoxaborole hydrochloride] | > 10000 nM | 4000 to 10000 nM | 1000 to 4000 nM | > 10 µM | 1000 to 4000 nM | 4 to 10 µM | – |
| N#Cc1cnc(Oc2ccc3c(c2)COB3O)c(O)c1 [D123, 5-Hydroxy-6-(1-hydroxy-1,3-dihydro-benzo[c][1,2]oxaborol-5-yloxy)-nicotinonitrile] | – | < 1000 nM | < 1000 nM | 1 to 4 µM | < 1000 nM | 1 to 4 µM | < 1000 nM |
| CCOC(=O)c1ccc(Oc2ccc3c(c2)COB3O)cc1 [D72, 4-(1-Hydroxy-1,3-dihydro-benzo[c][1,2]oxaborol-5-yloxy)-benzoic acid ethyl ester] | – | 1000 to 4000 nM | < 1000 nM | > 10 µM | 1000 to 4000 nM | 4 to 10 µM | 1000 to 4000 nM |
| CCOC(=O)c1cc(F)c(Oc2ccc3c(c2)COB3O)cc1Cl [D53, 5-(5-Chloro-2-fluoro-4-ethoxycarbonylphenoxy)-1-hydroxy-2,1-benzoxaborole] | – | < 1000 nM | < 1000 nM | 1 to 4 µM | < 1000 nM | 1 to 4 µM | < 1000 nM |
| COC(=O)c1cc(F)c(Oc2ccc3c(c2)COB3O)c(F)c1 [D52, 5-(2,6-Difluoro-4-methoxycarbonylphenoxy)-1-hydroxy-2,1-benzoxaborole] | – | 4000 to 10000 nM | 1000 to 4000 nM | > 10 µM | 4000 to 10000 nM | > 10 µM | > 10000 nM |
| N#Cc1ccc(COc2ccc3c(c2)COB3O)cc1 [D1, 5-(4-Cyanobenzyloxy)-1,3-dihydro-1-hydroxy-2,1-benzoxaborole] | – | 1000 to 4000 nM | 1000 to 4000 nM | > 10 µM | 1000 to 4000 nM | 1 to 4 µM | 4000 to 10000 nM |
| COC(=O)c1ccc(Oc2ccc3c(c2)COB3O)cc1 [D71, 4-(1-Hydroxy-1,3-dihydro-benzo[c][1,2]oxaborol-5-yloxy)-benzoic acid methyl ester] | – | 1000 to 4000 nM | < 1000 nM | > 10 µM | 1000 to 4000 nM | 4 to 10 µM | 1000 to 4000 nM |
| CN(CCO)c1nc(Oc2ccc3c(c2)COB3O)ccc1C#N [D115, 6-(1-Hydroxy-1,3-dihydro-benzo[c][1,2]oxaborol-5-yloxy)-2-[(2-hydroxy-ethyl)-methyl-amino]-nicotinonitrile] | – | < 1000 nM | < 1000 nM | 4 to 10 µM | < 1000 nM | < 1 µM | < 1000 nM |
| CC(C)Oc1nc(Oc2ccc3c(c2)COB3O)ccc1C#N [D128, 6-(1-Hydroxy-1,3-dihydro-benzo[c][1,2]oxaborol-5-yloxy)-2-isopropoxy-nicotinonitrile] | – | < 1000 nM | < 1000 nM | < 1 µM | < 1000 nM | < 1 µM | < 1000 nM |
| CCCOc1nc(Oc2ccc3c(c2)COB3O)ccc1C#N [D131, 6-(1-Hydroxy-1,3-dihydro-benzo[c][1,2]oxaborol-5-yloxy)-2-propoxy-nicotinonitrile] | – | < 1000 nM | < 1000 nM | < 1 µM | < 1000 nM | < 1 µM | < 1000 nM |
| N#Cc1ccc(Oc2ccc3c(c2)B(O)OC3)cc1 [C18, 6-(4-Cyanophenoxy)-1,3-dihydro-1-hydroxy-2,1-benzoxaborole] | – | > 10000 nM | > 10000 nM | > 10 µM | > 10000 nM | > 10 µM | > 10000 nM |
| O=C(NCc1ccccc1)c1ccc(Oc2ccc3c(c2)COB3O)cc1 [D76, N-Benzyl-4-(1-hydroxy-1,3-dihydro-benzo[c][1,2]oxaborol-5-yloxy)-benzamide] | – | 1000 to 4000 nM | < 1000 nM | 1 to 4 µM | < 1000 nM | 4 to 10 µM | 1000 to 4000 nM |
| N#Cc1ccc(Oc2ccc3c(c2)COB3O)nc1NCc1ccccc1 [D121, 2-Benzylamino-6-(1-hydroxy-1,3-dihydro-benzo[c][1,2]oxaborol-5-yloxy)-nicotinonitrile] | – | < 1000 nM | – | 1 to 4 µM | < 1000 nM | < 1 µM | < 1000 nM |
